According to patent publication US20110171160A1, “POLYMER CONJUGATES OF KISS1 PEPTIDES” (Nektar Therapeutics, priority 2008, published 2011):
No end group written: not given here.

Target: T1, human GPR54 (Homo sapiens, UniProt Q969F8)
T1 construct: host or cells: Chem-1 host cells, with the promiscuous G protein Galpha15 (Gal 5 [sic])
Assay: FLIPR calcium flux agonist assay on GPR54-expressing Chem-1 cell line
Format: cell-based
Details: time of release n/a (no release incubation); for EC50: read-out: EC50 (nM) of agonist activation at GPR54
Method: A FLIPR assay was conducted to screen Kisspeptin and PEG-Kisspeptin peptides for dose-dependent agonist activities on the GP[…]-Protein coupled receptor. […] All compounds were diluted in their storage solvents to produce 250× (of the top dose listed below) master stock solutions. Compounds were then transferred from their master stock solutions into a daughter plate that was used in the assay. Each 250× solution was diluted into assay buffer (1×HBSS with 20 mM HEPES and 2.5 mM Probenecid) to obtain the final top test concentration. Calcium flux agonist assay: Chemicon's cloned human GPR54-expressing cell line is made in the Chem-1 host, which supports high levels of recombinant GPR54 expression on the cell surface and contains high levels of the promiscuous G protein Gal 5 to couple the receptor to the calcium signaling pathway. […] Reference agonist was handled as mentioned above, serving as assay control. Assay was read for 180 seconds using the FLIPR^TETRA. All plates were subjected to appropriate baseline corrections. Once baseline corrections were processed, maximum fluorescence values were exported and data manipulated to calculate percentage activation and Z'. Dose response curves were generated using GraphPad Prism. The curves were fit by utilizing sigmoidal dose response (variable slope) fitting with the bottom parameter fixed at 0 (FIGS.

T1 sequence (Q969F8 whole entry): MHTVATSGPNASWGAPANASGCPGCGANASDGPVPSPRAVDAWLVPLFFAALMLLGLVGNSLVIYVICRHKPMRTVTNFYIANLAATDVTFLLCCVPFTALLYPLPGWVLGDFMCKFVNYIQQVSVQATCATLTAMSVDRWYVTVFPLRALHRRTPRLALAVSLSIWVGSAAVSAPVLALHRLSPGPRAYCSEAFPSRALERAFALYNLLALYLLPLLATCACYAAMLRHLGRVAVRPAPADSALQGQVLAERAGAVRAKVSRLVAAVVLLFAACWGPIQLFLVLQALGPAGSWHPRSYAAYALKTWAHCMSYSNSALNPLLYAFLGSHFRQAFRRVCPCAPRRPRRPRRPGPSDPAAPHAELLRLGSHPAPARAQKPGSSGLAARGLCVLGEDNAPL

| EC50 (nM) of agonist activation at GPR54 | Compound | Fold change compared to metastin | EC50 |
| --- | --- | --- | --- |
|  | CC(C)C[C@H](NC(=O)CNC(=O)[C@H](Cc1ccccc1)NC(=O)[C@H](CO)NC(=O)[C@H](CC(N)=O)NC(=O)[C@H](Cc1c[nH]c2ccccc12)NC(=O)[C@H](CC(N)=O)NC(=O)[C@H](Cc1ccc(O)cc1)NC(=O)[C@H](CC(N)=O)NC(=O)[C@@H]1CCCN1C(=O)[C@@H](N)CC(C)C)C(=O)N[C@@H](CCCNC(=N)N)C(=O)N[C@@H](Cc1ccccc1)C(N)=O [KP13] | 1 fold | 11 nM |
| No activity | Ald30K-KP13: Kisspeptin-13 mono-PEGylated with linear mPEG-ButyrALD-30K by reductive amination (stable conjugate) (LPNYNWNSFGLRF; also: mono-PEGylated with mPEG-butyraldehyde 30K by reductive amination, site not given here; UniProt Q15726 109-121, looked up) |  |  |
|  | GTSLSPPPESSGSPQQPGLSAPHSRQIPAPQGAVLVQREKDLPNYNWNSFGLRF-NH2 [KP54] | 16 fold | 190 nM |
| No activity | Ald40K-KP54: Kisspeptin-54 mono-PEGylated with mPEG2-ButyrAldehyde-40K by reductive amination (stable conjugate) (GTSLSPPPESSGSPQQPGLSAPHSRQIPAPQGAVLVQREKDLPNYNWNSFGLRF-NH2; also: mono-PEGylated with mPEG2-butyraldehyde 40K by reductive amination, site not given here; UniProt Q15726 68-121, looked up) |  |  |
|  | CC(C)C[C@H](NC(=O)CNC(=O)[C@H](Cc1ccccc1)NC(=O)[C@H](CO)NC(=O)[C@H](CC(N)=O)NC(=O)[C@H](Cc1c[nH]c2ccccc12)NC(=O)[C@H](CC(N)=O)NC(=O)[C@@H](N)Cc1ccc(O)cc1)C(=O)N[C@@H](CCCNC(=N)N)C(=O)N[C@@H](Cc1ccccc1)C(N)=O [KP10] | 1 fold | 10 nM |
